Test results reported in US20240058308A1, “TREATMENT AND PREVENTION OF DRY MACULAR DEGENERATION” (The Regents of the University of Michigan, priority 2021, published 2024).

How the values were obtained:
[1] = test system: primary hfRPE culture; experiment: Undigestible autofluorescent material (UAM) accumulation, elimination and granule size after oxOS feedings; type: cell-based, human
[2] = test system: primary hfRPE culture
Description: Phagocytosis assays using bovine outer segments was performed using the “pulse-only” method [Ref 43; incorporated by reference in its entirety]. Values at the zero-hour timepoint were used for normalization.

Q: Which “UAM granule size, drug during oxOS feedings” value ([1]; concurrent feeding of oxOS and drug) does the source give for `COC(=O)Nc1nc2cc(C(=O)c3ccc(F)cc3)ccc2[nH]1` [FLBZ, Flubendazole] here?
A: smaller than untreated cultures

Q: And the “UAM accumulation, drug fed concurrently with oxOS” value ([1]; fed daily with oxOS over a month, FLBZ 12 μM, Torin 1 μM, vs vehicle)?
A: significantly less UAM accumulation

Q: What about the “UAM granule size, drug after UAM buildup” value ([1]; twenty drug feedings after UAM accrual) of the same compound?
A: smaller granule size

Q: And the “UAM level, drug fed after UAM had accumulated” value ([1]; twenty oxOS feedings, wash, then twenty drug feedings over an additional month)?
A: significantly lower levels of UAM

Q: And the “OS phagocytosis efficiency / OS degradative capacity” value [2]?
A: no effect on OS degradative capacity
